Results: ChEMBL document CHEMBL4834434, “Discovery of Novel and Potent N-Methyl-d-aspartate Receptor Positive Allosteric Modulators with Antidepressant-like Activity in Rodent Models” (J Med Chem, 2021)
Active and inactive are the calls of the source. The calls are words filed in the database; no cut-off is given here.

Tests used:
[1] = AUC (0 to t) in Sprague-Dawley rat at 3 mg/kg, iv measured up to 1280 mins by HPLC-MS/MS analysis; assay type: ADME, organism-based; design: route intravenous, dose 3 mg/kg, time <=1280; settings: in vivo
hERG (KCNH2) [2] = target: T1, hERG (KCNH2) (Homo sapiens, UniProt Q12809); experiment: Inhibition of human ERG expressed in CHO cells at 30 uM with holding potential at -80 to -60 mV for 500s followed by raise in potential at +30 mV for 2 sec and subsequent repolarization to -60 mV for 2 sec by whole-cell patch clamp method relative to control; assay type: cell-based; settings: CHO cells expressing human ERG
[3] = Drug concentration in ICR mouse plasma at 3 mg/kg, iv measured at 2 hrs; assay type: ADME, organism-based
[4] = MRT in ICR mouse at 3 mg/kg, iv measured up to 24 hrs by HPLC-MS/MS analysis; assay type: ADME, organism-based; settings: in vivo
[5] = target: Glutamate NMDA receptor (Mus musculus) (UniProt P35436+Q91ZU9+Q03391+P35438+Q01097+Q01098+A2AIR5); experiment: Positive allosteric modulation of C57BL/6 mouse NMDA receptor assessed as fold change in compound potentiated NMDA-induced current relative to NMDA current alone at 30 uM measured after 15 to 30 mins by patch-clamp method; assay type: tissue-based; settings: Brain, filed as positive allosteric modulator, time 15-30 min
Mus musculus [6] = experiment: Antidepressant activity in ICR mouse assessed as decrease in immobility time at 30 mg/kg, ip measured after 26 mins by forced swim test; assay type: functional, organism-based
[7] = Cytotoxicity against mouse L929 cells assessed as cell growth inhibition at 120 uM measured after 48 hrs by CCK8 assay relative to control; assay type: cell-based
[8] = Ratio of drug concentration in brain to plasma in ICR mouse at 3 mg/kg, iv measured at 2 hrs by LC-MS/MS analysis; assay type: ADME, organism-based; settings: read-out: BPR
[9] = Half life in Sprague-Dawley rat at 10 mg/kg, po measured up to 1280 mins by HPLC-MS/MS analysis; assay type: ADME, organism-based; settings: in vivo
Mus musculus [10] = experiment: Antidepressant activity in ICR mouse aassessed as inhibition of apomorphine-induced climbing behaviour at 10 mg/kg, ip administered prior to APO challenge and measured after 30 mins; assay type: functional, organism-based
[11] = Half life in Sprague-Dawley rat at 3 mg/kg, iv measured up to 1280 mins by HPLC-MS/MS analysis; assay type: ADME, organism-based; settings: in vivo
[12] = Brain to blood partition coefficient of the compound; assay type: physicochemical, tissue-based; settings: read-out: logBB (converted)
[13] = target: 5-hydroxytryptamine receptor 1A (Homo sapiens) (UniProt P08908); experiment: Displacement of [3H]-8-OH-DPAT from human 5HT1AR expressed in CHO cells incubated for 30 mins by liquid scintillation counting analysis; assay type: cell-based
[14] = Ratio of drug concentration in brain to plasma in Sprague-Dawley rat at 3 mg/kg, iv measured at 20 mins by LC-MS/MS analysis; assay type: ADME, organism-based; settings: read-out: BPR
[15] = Drug concentration in ICR mouse brain at 10 mg/kg, po measured at 2 hrs by LC-MS/MS analysis; assay type: ADME, organism-based; settings: read-out: Ct
[16] = […] in ICR mouse assessed as decrease in body weight at 30 mg/kg, po administered for 28 days; assay type: organism-based; settings: in vivo, 672 h, time 28 day
[17] = Half life in ICR mouse at 3 mg/kg, iv measured up to 24 hrs by HPLC-MS/MS analysis; assay type: ADME, organism-based; settings: in vivo
hERG (KCNH2) [18] = target: T1, hERG (KCNH2); experiment: Inhibition of human ERG expressed in CHO cells at 100 uM with holding potential at -80 to -60 mV for 500s followed by raise in potential at +30 mV for 2 sec and subsequent repolarization to -60 mV for 2 sec by whole-cell patch clamp method relative to control; assay type: cell-based; settings: CHO cells expressing human ERG
[19] = Oral bioavailability in ICR mouse at 10 mg/kg measured up to 24 hrs by HPLC-MS/MS analysis; assay type: ADME, organism-based; settings: in vivo
[20] = Drug concentration in ICR mouse plasma at 10 mg/kg, po measured at 0.5 hrs by LC-MS/MS analysis; assay type: ADME, organism-based
[21] = target: Adrenergic receptor alpha-1 (Rattus norvegicus) (UniProt P15823+P23944+P43140); experiment: Displacement of [3H]-prazosin from rat adrenergic alpha 1 receptor incubated for 60 mins by liquid scintillation counting analysis; assay type: protein assay
[22] = Drug concentration in Sprague-Dawley rat brain at 3 mg/kg, iv measured at 80 mins by LC-MS/MS analysis; assay type: ADME, organism-based; settings: read-out: Ct
[23] = Tmax in ICR mouse at 10 mg/kg, po measured up to 24 hrs by HPLC-MS/MS analysis; assay type: ADME, organism-based; settings: in vivo
[24] = Drug concentration in ICR mouse brain at 10 mg/kg, po measured at 0.5 hrs by LC-MS/MS analysis; assay type: ADME, organism-based; settings: read-out: Ct
[25] = Drug concentration in ICR mouse brain at 3 mg/kg, iv measured at 2 hrs; assay type: ADME, organism-based; settings: read-out: Ct
[26] = Cytotoxicity against human HEK293 cells assessed as cell growth inhibition at 60 uM measured after 48 hrs by CCK8 assay relative to control; assay type: cell-based
[27] = Tmax in Sprague-Dawley rat at 10 mg/kg, po measured up to 1280 mins by HPLC-MS/MS analysis; assay type: ADME, organism-based; settings: in vivo
[28] = Volume of distribution at steady state in Sprague-Dawley rat at 3 mg/kg, iv measured up to 1280 mins by HPLC-MS/MS analysis; assay type: ADME, organism-based; settings: in vivo
[29] = AUC (0 to t) in ICR mouse at 10 mg/kg, po measured up to 24 hrs by HPLC-MS/MS analysis; assay type: ADME, organism-based; design: route oral, dose 10 mg/kg, time <=24; settings: in vivo
[30] = Cytotoxicity against mouse L929 cells assessed as cell growth inhibition at 60 uM measured after 48 hrs by CCK8 assay relative to control; assay type: cell-based
[31] = Half life in ICR mouse at 10 mg/kg, po measured up to 24 hrs by HPLC-MS/MS analysis; assay type: ADME, organism-based; settings: in vivo
[32] = […] in ICR mouse assessed as change in behaviour at 30 mg/kg, po administered for 28 days; assay type: organism-based; settings: in vivo, 672 h, time 28 day
[33] = Drug concentration in ICR mouse brain at 3 mg/kg, iv measured at 0.5 hrs by LC-MS/MS analysis; assay type: ADME, organism-based; settings: read-out: Ct
[34] = Cmax in Sprague-Dawley rat at 10 mg/kg, po measured up to 1280 mins by HPLC-MS/MS analysis; assay type: ADME, organism-based; design: route oral, dose 10 mg/kg, time <=1280; settings: in vivo
Glutamate NMDA receptor = experiment: Positive allosteric modulation of C57BL/6 mouse NMDA receptor assessed as potentiation of NMDA-induced current in presence of saturating glutamate by patch-clamp method; assay type: tissue-based, Brain
[35] = Clearance in Sprague-Dawley rat at 3 mg/kg, iv measured up to 1280 mins by HPLC-MS/MS analysis; assay type: ADME, organism-based; settings: in vivo
[36] = Acute toxicity in ip dosed ICR mouse assessed as lethal dose measured after 24 hrs; assay type: organism-based; settings: in vivo
[37] = Effect on locomotor activity in ICR mouse assessed as hypolocomotion at 10 mg/kg, ip measured after 90 mins; assay type: ADME, organism-based; settings: in vivo, 1.5 h
[38] = Cmax in ICR mouse at 10 mg/kg, po measured up to 24 hrs by HPLC-MS/MS analysis; assay type: ADME, organism-based; design: route oral, dose 10 mg/kg, time <=24; settings: in vivo
[39] = […] in ICR mouse assessed as body weight gain at 30 mg/kg, po administered for 28 days; assay type: organism-based; settings: in vivo, 672 h, time 28 day

T1 sequence (Q12809 whole entry): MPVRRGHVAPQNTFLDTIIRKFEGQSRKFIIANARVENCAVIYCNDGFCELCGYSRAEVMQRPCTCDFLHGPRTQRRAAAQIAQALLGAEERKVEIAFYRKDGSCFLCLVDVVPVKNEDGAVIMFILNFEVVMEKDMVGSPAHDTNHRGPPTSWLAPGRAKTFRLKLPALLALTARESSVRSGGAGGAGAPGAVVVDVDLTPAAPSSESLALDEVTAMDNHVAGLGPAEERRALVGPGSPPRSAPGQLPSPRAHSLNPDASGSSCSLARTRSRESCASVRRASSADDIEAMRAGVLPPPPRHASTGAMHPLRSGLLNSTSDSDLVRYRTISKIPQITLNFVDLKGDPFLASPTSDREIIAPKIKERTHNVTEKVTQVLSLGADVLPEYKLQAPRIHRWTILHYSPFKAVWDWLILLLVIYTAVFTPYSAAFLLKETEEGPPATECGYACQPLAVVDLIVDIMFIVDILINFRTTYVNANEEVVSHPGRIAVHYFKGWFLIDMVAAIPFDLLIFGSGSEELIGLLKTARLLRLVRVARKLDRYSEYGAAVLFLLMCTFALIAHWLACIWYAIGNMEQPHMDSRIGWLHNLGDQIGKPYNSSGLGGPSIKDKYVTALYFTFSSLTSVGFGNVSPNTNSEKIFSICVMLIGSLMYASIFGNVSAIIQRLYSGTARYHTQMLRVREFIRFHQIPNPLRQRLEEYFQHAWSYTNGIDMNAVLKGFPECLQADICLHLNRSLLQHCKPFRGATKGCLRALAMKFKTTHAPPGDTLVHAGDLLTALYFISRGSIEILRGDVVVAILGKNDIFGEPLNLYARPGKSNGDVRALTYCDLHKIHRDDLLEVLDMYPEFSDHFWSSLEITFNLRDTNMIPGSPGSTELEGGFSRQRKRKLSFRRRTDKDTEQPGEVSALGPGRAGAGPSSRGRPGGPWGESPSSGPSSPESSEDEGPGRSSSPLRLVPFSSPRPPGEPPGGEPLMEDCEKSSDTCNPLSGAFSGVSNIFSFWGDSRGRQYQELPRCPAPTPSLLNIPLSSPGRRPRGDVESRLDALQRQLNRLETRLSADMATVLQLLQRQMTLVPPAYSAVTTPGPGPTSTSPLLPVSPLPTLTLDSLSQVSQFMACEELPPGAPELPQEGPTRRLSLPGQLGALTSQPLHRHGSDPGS
Chain of 5-hydroxytryptamine receptor 1A (Homo sapiens) (P08908 whole entry): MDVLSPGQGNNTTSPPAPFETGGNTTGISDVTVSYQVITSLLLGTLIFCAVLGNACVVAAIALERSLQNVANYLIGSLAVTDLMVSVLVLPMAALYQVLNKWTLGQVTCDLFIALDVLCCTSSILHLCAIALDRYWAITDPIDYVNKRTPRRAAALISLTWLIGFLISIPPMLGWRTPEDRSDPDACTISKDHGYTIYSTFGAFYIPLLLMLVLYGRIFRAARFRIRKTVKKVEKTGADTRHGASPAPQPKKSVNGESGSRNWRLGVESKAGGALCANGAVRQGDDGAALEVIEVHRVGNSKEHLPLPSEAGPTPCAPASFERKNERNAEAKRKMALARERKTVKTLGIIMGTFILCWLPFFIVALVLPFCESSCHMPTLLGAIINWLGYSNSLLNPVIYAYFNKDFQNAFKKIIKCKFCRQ

Which AUC(0-t) at 1280 min [1] does the source give for `Cc1cc(C)n(Cc2ccc(C(=O)Nc3ccc(Cl)c(Cl)c3)s2)n1` here?
Its AUC(0-t) at 1280 min is 1820 ng·h/mL.

What about the inhibition at 2 s, 30 µM (hERG (KCNH2) [2]) of the same compound?
The inhibition at 2 s, 30 µM was 35.4%.

What about the concentration at 2 h [3] of the same compound?
The concentration at 2 h was 2940 ng/mL.

What about the MRT [4] of the same compound?
Its MRT is 4 h.

And the fold change (FC) [5]?
The fold change (FC) was 12.5.

What about the Activity (Mus musculus [6]) of the same compound?
Its Activity is “Active”.

And the inhibition at 48 h, 120 µM [7]?
The inhibition at 48 h, 120 µM was -4.6%.

What about the Kp at 2 h [8] of the same compound?
The Kp at 2 h was 0.34.

What about the half-life [9] of the same compound?
Its half-life is 1.13 h.

What about the Activity (Mus musculus [10]) of the same compound?
The Activity was “inactive”.

What about the t1/2 [11] of the same compound?
The t1/2 was 1.7 h.

What about the Kp [12] of the same compound?
Its Kp is 1.26.

What about the inhibition [13] of the same compound?
Its inhibition is “inactive”.

What about the Kp at 20 min [14] of the same compound?
The Kp at 20 min was 1.5.

What about the concentration at 2 h [15] of the same compound?
The concentration at 2 h was 174 ng/mL.

And the Activity [16]?
Its Activity is “Toxic”.

What about the half-life [17] of the same compound?
Its half-life is 2.8 h.

And the inhibition at 2 s, 100 µM (hERG (KCNH2) [18])?
The inhibition at 2 s, 100 µM was 45%.

What about the bioavailability [19] of the same compound?
Its bioavailability is 63.3%.

And the concentration at 0.5 h [20]?
The concentration at 0.5 h was 760 ng/mL.

What about the inhibition [21] of the same compound?
The inhibition was “inactive”.

And the concentration at 1.333 h [22]?
Its concentration at 1.333 h is 354 ng/g.

What about the Tmax [23] of the same compound?
Its Tmax is 0.5 h.

And the concentration at 0.5 h [24]?
The concentration at 0.5 h was 281 ng/mL.

What about the concentration at 2 h [25] of the same compound?
The concentration at 2 h was 85.5 ng/mL.

And the inhibition at 48 h, 60 µM [26]?
Its inhibition at 48 h, 60 µM is -5.2%.

And the Tmax [27]?
The Tmax was 0.555 h.

What about the Vdss [28] of the same compound?
Its Vdss is 1.27 L/kg.

What about the AUC(0-t) at 24 h [29] of the same compound?
The AUC(0-t) at 24 h was 3050 ng·h/mL.

What about the inhibition at 48 h, 60 µM [30] of the same compound?
Its inhibition at 48 h, 60 µM is 0.5%.

What about the half-life [31] of the same compound?
Its half-life is 2.9 h.

What about the Activity [32] of the same compound?
The Activity was “Non-Toxic”.

And the concentration at 0.5 h [33]?
Its concentration at 0.5 h is 160 ng/mL.

And the Cmax [34]?
Its Cmax is 190 ng/mL.

What about the EC50 (Glutamate NMDA receptor) of the same compound?
Its EC50 is 2.4 µM.

What about the CL [35] of the same compound?
The CL was 27.8 mL/min/kg.

What about the LD50 at 24 h [36] of the same compound?
The LD50 at 24 h was 1500 mg/kg.

What about the Activity [37] of the same compound?
Its Activity is “Non-Toxic”.

And the Cmax [38]?
Its Cmax is 760 ng/mL.

What about the Activity [39] of the same compound?
Its Activity is “Non-Toxic”.
